# Laboratory results: publication PMC6384901 (Molecules, 2019)
# Numbered stars: 1 amine (or outer) side, 2 acyl side, 3 side chain; on linkers, the order of the positions; unused ones are H or OH. Bridge positions count the residues as written; N and C are the ends. Peptide text beside a SMILES is read from it. * marks the point of attachment. Suberoyl(Gly)2 = O=C(CCCCCCC(=O)NCC(=O)[*:2])NCC(=O)[*:1]; Suberoyl = O=C(CCCCCCC(=O)[*:2])[*:1]; Myristoyl = CCCCCCCCCCCCCC(=O)*; Suc = O=C(CCC(=O)[*:2])[*:1]
# Experiments:
# [1] = test system: His6-SIRT1 or GST-SIRT1, 243 nM; test: 50 mM Hepes (pH 8.0), 137 mM NaCl, 2.7 mM KCl, 1 mM MgCl2, 1 mM DTT, β-NAD^+ 0.5 mM; conditions: human, 37 °C, up to 5 min
# [2] = test system: His6-SIRT3, 739 nM; test: 50 mM Hepes (pH 8.0), 137 mM NaCl, 2.7 mM KCl, 1 mM MgCl2, 1 mM DTT, β-NAD^+ 3.5 mM; conditions: human, 37 °C, up to 2 min
# [3] = test system: pronase; test: pronase solution in 100 mM Tris HCl (pH 7.3) (8 ng/µL); conditions: Streptomyces griseus, 37 °C, up to 60 min
# [4] = test system: His6-SIRT2, 297 nM; test: 50 mM Hepes (pH 8.0), 137 mM NaCl, 2.7 mM KCl, 1 mM MgCl2, 1 mM DTT, β-NAD^+ 0.5 mM; conditions: human, 37 °C, up to 2 min
# [5] = biological target: T1, human recombinant His6-SIRT1 or GST-SIRT1 (Homo sapiens, UniProt Q96EB6); test: HPLC-based sirtuin deacylation activity assay, SIRT1; format: biochemical; conditions: substrate activity with SIRT1; 50 mM Hepes pH 8.0, 0.5 mM β-NAD+, SIRT1 243 nM, 37 °C, 5 min, HPLC 214 nm, Michaelis-Menten fit
# T1 construct: His6 or GST (two alternative purchased preparations, not both on one protein); purchased Sigma-Aldrich China (His6-SIRT1); Cayman Chemical (GST-SIRT1)
# T1 sequence (Q96EB6 1-747): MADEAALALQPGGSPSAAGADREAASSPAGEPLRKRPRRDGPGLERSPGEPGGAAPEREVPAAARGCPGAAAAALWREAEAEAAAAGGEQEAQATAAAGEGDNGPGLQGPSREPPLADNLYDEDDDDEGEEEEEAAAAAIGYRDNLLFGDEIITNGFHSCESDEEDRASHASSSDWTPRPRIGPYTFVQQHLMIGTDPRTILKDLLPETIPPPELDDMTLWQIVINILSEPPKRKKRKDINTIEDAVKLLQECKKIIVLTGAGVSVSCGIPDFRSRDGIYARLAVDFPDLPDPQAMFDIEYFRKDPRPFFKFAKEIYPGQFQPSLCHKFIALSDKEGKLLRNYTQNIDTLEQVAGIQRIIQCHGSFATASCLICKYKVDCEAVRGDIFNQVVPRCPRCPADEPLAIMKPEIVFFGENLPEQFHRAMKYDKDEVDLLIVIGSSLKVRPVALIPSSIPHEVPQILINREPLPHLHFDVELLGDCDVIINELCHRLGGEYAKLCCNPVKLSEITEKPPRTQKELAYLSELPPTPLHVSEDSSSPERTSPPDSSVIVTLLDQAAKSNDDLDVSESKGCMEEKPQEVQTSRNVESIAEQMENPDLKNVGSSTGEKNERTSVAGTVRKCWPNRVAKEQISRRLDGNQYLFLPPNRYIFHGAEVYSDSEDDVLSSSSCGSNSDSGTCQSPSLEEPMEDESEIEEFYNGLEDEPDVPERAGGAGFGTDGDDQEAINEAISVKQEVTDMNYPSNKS
# Method: The steady-state kinetic parameters (kcat and KM) for the SIRT1/2/3 substrate activities of the purified 5–8 were determined with a HPLC-based sirtuin deacylation activity assay and are recorded in Table 2 and Table 3. As judged by kcat/KM ratios, cyclic peptides 5–8 were all found to be excellent SIRT1 substrates, actually 5, 7, and 8 are all better SIRT1 substrates than the linear hexapeptide-based SIRT1 substrate 3 (depicted in Figure 2) reported in the current literature (kcat/KM = 800 M^−1 s^−1). Cyclic peptides 5–8 were also all found to be better SIRT3 substrates than the linear hexapeptide-based SIRT3 substrate 3 reported in the current literature (kcat/KM = 990 M^−1·s^−1).
# The following materials were obtained from commercial sources for the in vitro sirtuin deacylation activity assay and the pronase digestion assay, and were used as received. Sigma-Aldrich China: the active human recombinant His6-SIRT1, Trizma, Hepes, β-NAD^+, a 1.0 M solution of MgCl2 (molecular-biology grade), the pronase from Streptomyces griseus; Cayman Chemical (Ann Arbor, MI, USA): the active human recombinant GST-SIRT1, the active human recombinant His6-SIRT2, the active human recombinant His6-SIRT3; TCI Shanghai: DL-dithiothreitol (DTT); Alfa Aesar China: NaCl, KCl.
# A sirtuin deacylation assay solution contained the following: 50 mM Hepes (pH 8.0), 137 mM NaCl, 2.7 mM KCl, 1 mM MgCl2, 1 mM DTT, β-NAD^+ (~5.6 × KM: 0.5 mM for the SIRT1 and SIRT2 assays, 3.5 mM for the SIRT3 assay), one test compound (5, 6, 7, or 8) with varied concentrations including 0, and a sirtuin (His6-SIRT1 or GST-SIRT1, 243 nM; His6-SIRT2, 297 nM; or His6-SIRT3, 739 nM). An enzymatic reaction was initiated by the addition of a sirtuin at 37 °C and was incubated at 37 °C for 5 min (for the SIRT1 assay) or 2 min (for the SIRT2 and SIRT3 assays) until quenched with the following stop solution: 100 mM HCl and 0.16 M acetic acid. The quenched assay solutions were directly injected into a C18 column (0.46 × 25 cm, 5 μm), and the column was eluted with a gradient of ddH2O containing 0.05% (v/v) TFA and acetonitrile containing 0.05% (v/v) TFA at 1 mL/min and was monitored at 214 nm. Turnover of the limiting substrate was kept at <10%. Stock solutions of the test compounds were all prepared in ddH2O. The integrated product and substrate HPLC peak areas were then used to determine the initial velocities for the sirtuin-catalyzed deacylation reaction at different concentrations of a test compound (5, 6, 7, or 8). The initial velocity-concentration data were analyzed with KaleidaGraph® (Synergy Software, Reading, PA, USA) and the data were fitted to the Michaelis-Menten equation to obtain the kinetic parameters kcat and KM, as recorded in Table 2 and Table 3.
Compound,cleaved bond [1],cleaved bond [2],fragment found [3],cleaved bond [4],KM [5],kcat [5]
"CH3CONH-Lys-Lys-(N^ε-acetyl-Lysine)-Lys-Met-NH2, side chains of Lys1 and Lys4 bridged by Gly-suberoyl-Gly (read from the drawn structure)",SIRT1-catalyzed deacylation of N^ε-acetyl-lysine,SIRT3-catalyzed deacylation of N^ε-acetyl-lysine,5a,SIRT2-catalyzed deacylation of N^ε-acetyl-lysine,–,–
CCCCCCCCCCCCCC(=O)NCCCC[C@@H]1NC(=O)[C@H](CCCNC(=N)N)NC(=O)[C@@H](NC(C)=O)CCCCNC(=O)CCCCCCC(=O)NCCCC[C@@H](C(=O)N[C@H](C(N)=O)[C@@H](C)O)NC1=O [Compound 7] (Ac-KRK(Myristoyl)KT-NH2; linker 1-4 via Suberoyl),–,–,–,–,2.85 ± 0.13 µM,"5.8 ± 0.1 10^−3, s^−1"
"CH3CONH-Lys-Lys-(N^ε-acetyl-Lysine)-Lys-Met-NH2, side chains of Lys1 and Lys4 bridged by succinyl (read from the drawn structure)",SIRT1-catalyzed deacylation of N^ε-acetyl-lysine,SIRT3-catalyzed deacylation of N^ε-acetyl-lysine,–,SIRT2-catalyzed deacylation of N^ε-acetyl-lysine,–,–
CSCC[C@H](NC(=O)[C@@H]1CCCCNC(=O)CCC(=O)NCCCC[C@H](NC(C)=O)C(=O)N[C@@H](CCCCN)C(=O)N[C@@H](CCCCNC(C)=O)C(=O)N1)C(N)=O [Compound 6] (Ac-KKK(Ac)KM-NH2; linker 1-4 via Suc),–,–,–,–,41.3 ± 1.83 µM,"25.9 ± 2.3 10^−3, s^−1"
"CH3CONH-Lys-Lys-(N^ε-acetyl-Lysine)-Lys-NH2, side chains of Lys1 and Lys4 bridged by Gly-suberoyl-Gly (read from the drawn structure)",SIRT1-catalyzed deacylation of N^ε-acetyl-lysine,SIRT3-catalyzed deacylation of N^ε-acetyl-lysine,–,SIRT2-catalyzed deacylation of N^ε-acetyl-lysine,–,–
CC(=O)NCCCC[C@@H]1NC(=O)[C@H](CCCCN)NC(=O)[C@@H](NC(C)=O)CCCCNC(=O)CNC(=O)CCCCCCC(=O)NCC(=O)NCCCC[C@@H](C(N)=O)NC1=O [Compound 8] (Ac-KKK(Ac)K-NH2; linker 1-4 via Suberoyl(Gly)2),–,–,–,–,42.2 ± 17.5 µM,–
"CH3CONH-Lys-Arg-(N^ε-myristoyl-Lysine)-Lys-Thr-NH2, side chains of Lys1 and Lys4 bridged by suberoyl (read from the drawn structure)",SIRT1-catalyzed deacylation of N^ε-myristoyl-lysine,SIRT3-catalyzed deacylation of N^ε-myristoyl-lysine,–,SIRT2-catalyzed deacylation of N^ε-myristoyl-lysine,–,–
CSCC[C@H](NC(=O)[C@@H]1CCCCNC(=O)CNC(=O)CCCCCCC(=O)NCC(=O)NCCCC[C@H](NC(C)=O)C(=O)N[C@@H](CCCCN)C(=O)N[C@@H](CCCCNC(C)=O)C(=O)N1)C(N)=O [Compound 5] (Ac-KKK(Ac)KM-NH2; linker 1-4 via Suberoyl(Gly)2),–,–,–,–,22.2 ± 1.8 µM,"35.6 ± 5.1 10^−3, s^−1"
